From patent publication US10188634B2, “3-(3H-imidazo[4,5-C]pyridin-2-yl)-1 H-pyrazolo[4,3-B]pyridines and therapeutic uses thereof” (Samumed, LLC, priority 2015, dated 2019)
pEC50: −log10 of the molar value.

How the values were obtained:
Type in all cases: cell-based
SW480 colon cancer cells = test: Cell viability assay (CellTiter-Blue) in SW480 colon cancer cells; details: Homo sapiens, 96 h; for pEC50: four days incubation, CellTiter-Blue cell viability
Summary of the method: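 About 2×10^3 SW480 colon cancer cells per well were exposed to compound (8-point 1:3 dilutions, 10 μM to 0.004 μM) for four days at 37 °C. Viability was read by CellTiter-Blue resazurin reduction (~3 h, Ex 560/Em 590). EC50 from nonlinear regression; above 10 μM, % inhibition at 10 μM is reported.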

[1] = system: Wnt activity (Sp5-Luc reporter, human Sp5 promoter with eight TCF/LEF binding sites) in SW480 colon carcinoma cells; test: Screening assay for Wnt activity: Sp5-Luc reporter gene assay in SW480 cells; details: for pEC50: 10-point dose-response starting from 10 μM, overnight incubation
Summary of the method: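 SW480 cells stably carrying Sp5-Luc reporter (eight TCF/LEF sites) plated at 4,000/well in 1% FBS medium with compound (10-point 1:3 series from 10 μM, 0.1% DMSO) overnight at 37 °C. BrightGlo luminescence normalized to DMSO; EC50 by four-parameter fit, else % inhibition at 10 μM.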

[2] = system: LL29 cells (primary human fibroblasts derived from IPF patients) treated with TGF-β1, α-smooth muscle actin; test: Inhibition of the fibrotic process: αSMA staining in TGF-β1 treated primary human fibroblasts from IPF patients (LL29 cells); details: Fibroblast, 96 h; for pEC50: LL29 cells treated with TGF-β1 (20 ng/mL), 4 days; for inhibition at 10 µM: LL29 cells treated with TGF-β1, 4 days, read-out: percent inhibition in brackets (given for EC50 >10 μM)

| SMILES | pEC50 (SW480 colon cancer cells) | pEC50 [1] | pEC50 [2] | inhibition at 10 µM [2] [%] | inhibition at 10 µM (SW480 colon cancer cells; 10 μM, four days, CellTiter-Blue, read-out: percent inhibition at 10 μM (given for EC50 of >10 μM)) [%] | inhibition at 10 µM ([1]; 10 μM, read-out: percent inhibition at 10 μM (given for EC50 of >10 μM)) [%] |
| --- | --- | --- | --- | --- | --- | --- |
| CN(C)c1cncc(-c2ccc3[nH]nc(-c4nc5c(-c6cccc(F)c6)cncc5[nH]4)c3n2)c1 [Compound 7, 5-(3-(7-(3-Fluorophenyl)-3H-imidazo[4,5-c]pyridin-2-yl)-1H-pyrazolo[4,3-b]pyridin-5-yl)-N,N-dimethylpyridin-3-amine] | 6.07 | 6.20 | < 5.00 | 0 |  |  |
| CN(C)Cc1cncc(-c2ccc3[nH]nc(-c4nc5c(-c6cccc(F)c6)cncc5[nH]4)c3n2)c1 [Compound 13, 1-(5-(3-(7-(3-Fluorophenyl)-3H-imidazo[4,5-c]pyridin-2-yl)-1H-pyrazolo[4,3-b]pyridin-5-yl)pyridin-3-yl)-N,N-dimethylmethanamine] | 6.11 | 5.96 | 6.32 |  |  |  |
| O=C(Nc1cncc(-c2ccc3[nH]nc(-c4nc5c(-c6cccc(F)c6)cncc5[nH]4)c3n2)c1)C1CC1 [Compound 20, N-(5-(3-(7-(3-Fluorophenyl)-3H-imidazo[4,5-c]pyridin-2-yl)-1H-pyrazolo[4,3-b]pyridin-5-yl)pyridin-3-yl)cyclopropanecarboxamide] | < 5.00 | < 5.00 | < 5.00 | 0 | 5.1 | 7 |
| Fc1cccc(-c2cncc3[nH]c(-c4n[nH]c5ccc(-c6cncc(CN7CCC(F)(F)C7)c6)nc45)nc23)c1 [Compound 26, 5-(5-((3,3-Difluoropyrrolidin-1-yl)methyl)pyridin-3-yl)-3-(7-(3-fluorophenyl)-3H-imidazo[4,5-c]pyridin-2-yl)-1H-pyrazolo[4,3-b]pyridine] | 6.01 | 5.96 | 5.21 |  |  |  |
| CC(C)(C)C(=O)Nc1cncc(-c2ccc3[nH]nc(-c4nc5c(-c6ccc(F)cc6)cncc5[nH]4)c3n2)c1 [Compound 36, N-(5-(3-(7-(4-Fluorophenyl)-3H-imidazo[4,5-c]pyridin-2-yl)-1H-pyrazolo[4,3-b]pyridin-5-yl)pyridin-3-yl)pivalamide] | 5.21 | 5.56 | 5.91 |  |  |  |
| Fc1ccc(-c2cncc3[nH]c(-c4n[nH]c5ccc(-c6cncc(CN7CCCC7)c6)nc45)nc23)cc1 [Compound 42, 3-(7-(4-Fluorophenyl)-3H-imidazo[4,5-c]pyrid-2-yl)-5-(5-(pyrrolidin-1-ylmethyl)pyridin-3-yl)-1H-pyrazolo[4,3-b]pyridine] | 5.98 | 5.47 | 5.61 |  |  |  |
| Fc1ccccc1-c1cncc2[nH]c(-c3n[nH]c4ccc(-c5ccccn5)nc34)nc12 [Compound 84, 3-(7-(2-Fluorophenyl)-3H-imidazo[4,5-c]pyridin-2-yl)-5-(pyridin-2-yl)-1H-pyrazolo[4,3-b]pyridine] | 6.44 | 6.19 | < 5.00 | 29.7 |  |  |
| CC(C)Nc1cncc(-c2ccc3[nH]nc(-c4nc5c(-c6cccnc6)cncc5[nH]4)c3n2)c1 [Compound 96, N-Isopropyl-5-(3-(7-(pyridin-3-yl)-3H-imidazo[4,5-c]pyridin-2-yl)-1H-pyrazolo[4,3-b]pyridin-5-yl)pyridin-3-amine] | 5.21 | 5.87 | 5.51 |  |  |  |
| CN(C)c1cncc(-c2ccc3[nH]nc(-c4nc5c(N6CCCCC6)cncc5[nH]4)c3n2)c1 [Compound 175, N,N-dimethyl-5-(3-(7-(piperidin-1-yl)-3H-imidazo[4,5-c]pyridin-2-yl)-1H-pyrazolo[4,3-b]pyridin-5-yl)pyridin-3-amine] | 5.42 | 5.40 | 5.88 |  |  |  |
| Cc1ccncc1-c1ccc2[nH]nc(-c3nc4c(-c5ccsc5)cncc4[nH]3)c2n1 [Compound 257, 5-(4-Methylpyridin-3-yl)-3-(7-(thiophen-3-yl)-3H-imidazo[4,5-c]pyridin-2-yl)-1H-pyrazolo[4,3-b]pyridine] | 6.07 | 6.19 | 5.07 |  |  |  |
